Data taken from ChEMBL document CHEMBL5634175, “Genome-Driven Discovery of Hygrocins in Streptomyces rapamycinicus” (2024).

Tests used:
Format in all cases: functional
Staphylococcus aureus = assay: Antibacterial activity against Staphylococcus aureus 8325 incubated for 12 hrs by broth microdilution method
Bacillus subtilis = assay: Antibacterial activity against Bacillus subtilis incubated for 12 hrs by broth microdilution method
Pseudomonas aeruginosa = assay: Antibacterial activity against Pseudomonas aeruginosa PAO1 incubated for 12 hrs by broth microdilution method
Candida albicans = assay: Antifungal activity against Candida albicans IBT 656 incubated for 24 hrs by broth microdilution method

Measured: MIC

CC[C@@H](/C=C/[C@H](O)[C@H](C)OC(=O)/C(C)=C\C1=C2C(=CC(=O)c3cc(O)c(C)cc32)NC1=O)CCC(=O)O
> 50 µg/mL: Staphylococcus aureus | Bacillus subtilis | Pseudomonas aeruginosa | Candida albicans

CC[C@@H](/C=C/[C@H](OC(=O)/C(C)=C\C1=C2C(=CC(=O)c3cc(O)c(C)cc32)NC1=O)[C@H](C)O)CCC(=O)O
> 50 µg/mL: Staphylococcus aureus | Bacillus subtilis | Pseudomonas aeruginosa | Candida albicans

CC[C@H]1/C=C/[C@H](O)[C@@H](C)OC(=O)/C(C)=C\CC(=O)Nc2cc(O)cc3c2O[C@@]2(CC1)CC(=O)[C@H](C)[C@H]3O2
> 50 µg/mL: Staphylococcus aureus | Bacillus subtilis | Pseudomonas aeruginosa | Candida albicans

CC[C@H]1/C=C/[C@@H]([C@@H](C)O)OC(=O)/C(C)=C\CC(=O)Nc2cc(O)cc3c2O[C@@]2(CC1)CC(=O)[C@@H](C)[C@@H]3O2
> 50 µg/mL: Staphylococcus aureus | Bacillus subtilis | Pseudomonas aeruginosa | Candida albicans

CC[C@@H](/C=C/[C@H](O)[C@H](C)OC(=O)/C(C)=C\[C@@H]1C(=O)NC2=CC(=O)c3cc(O)c(C)cc3[C@]21O)CCC(=O)O
> 50 µg/mL: Staphylococcus aureus | Bacillus subtilis | Pseudomonas aeruginosa | Candida albicans

CC[C@@H](/C=C/[C@H](OC(=O)/C(C)=C\[C@H]1C(=O)NC2=CC(=O)c3cc(O)c(C)cc3[C@@]21O)[C@H](C)O)CCC(=O)O
> 50 µg/mL: Staphylococcus aureus | Bacillus subtilis | Pseudomonas aeruginosa | Candida albicans

CC[C@@H](/C=C/[C@H](OC(=O)/C(C)=C\[C@@H]1C(=O)NC2=CC(=O)c3cc(O)c(C)cc3[C@]21O)[C@H](C)O)CCC(=O)O
> 50 µg/mL: Staphylococcus aureus | Bacillus subtilis | Pseudomonas aeruginosa | Candida albicans
